Assays:
[1] = method code SF-HPLC, from DOI: 10.1248/cpb.38.1906, PMID: 2268893; settings: pH 6.9
[2] = method code SF-AS, from DOI: 10.1016/j.bmcl.2014.05.029, PMID: 24930836
[3] = method code SF-FL, from DOI: 10.1016/0006-2952(96)00248-1, PMID: 8687500
[4] = method code SF-AS, from DOI: 10.1016/0006-2952(90)90117-4, PMID: 2344368; settings: pH 7.5
[5] = method code SF-EN, from DOI: 10.1016/s0022-2275(20)42614-8, PMID: 2280184; settings: pH 1.0
[6] = method code SF-RC, from DOI: 10.1016/j.nucmedbio.2016.05.003, PMID: 27236283; settings: pH 7.4
[7] = method code RP-HPLC, from DOI: 10.1021/jm00011a007, PMID: 7540207
[8] = method code SF-AS, from DOI: 10.1093/oxfordjournals.jbchem.a131041, PMID: 939756; settings: pH 7.4
[9] = not given; remark: listed apart in the source
[10] = method code SF-AS, from DOI: 10.1021/acs.jmedchem.5b00731, PMID: 26397825; settings: pH 7.4
[11] = pH 7.4
[12] = method code SF-HPLC, from DOI: 10.1016/0168-3659(88)90058-2; settings: pH 7.4
[13] = method code SF-RC, from DOI: 10.1016/j.nucmedbio.2016.01.003, PMID: 27067043; settings: pH 7.4

CON=C(C(=O)NC1C(=O)N2C(C(=O)OCOC(=O)C(C)(C)C)=C(CN(C=O)C(C)=C(CCC(C)=O)SC(C)=O)CSC12)c1csc(N)n1 (configuration not stated)
logD [1]: 2.16

Cc1cc(=O)oc2cc(OCC(O)Cn3nnc4ccccc43)cc(OCC(O)Cn3nnc4ccccc43)c12 (configuration not stated)
logP [2]: 0.48

COc1cccc2c1C(=O)c1c(O)c3c(c(O)c1C2=O)CC(O)(C(C)=O)CC3OC1CC(NC(=O)OC2OC(C(=O)O)C(O)C(O)C2O)C(O)C(C)O1 (configuration not stated)
logP [3]: -2

Cc1cc2ncn(CC(O)COc3cc(OCC(O)Cn4cnc5cc(C)c(C)cc54)c4c(C)cc(=O)oc4c3)c2cc1C (configuration not stated)
logP [2]: 0.61

COc1cccc2c1C(=O)c1c(O)c3c(c(O)c1C2=O)C[C@@](O)(C(=O)CO)C[C@@H]3O[C@H]1C[C@H](NC(C)=O)[C@H](O)[C@H](C)O1
logD [4]: 1.27

C[C@H](CCC(=O)O)[C@H]1CC[C@H]2[C@@H]3C[C@H](O)[C@@H]4C[C@H](O)CC[C@]4(C)[C@H]3C[C@H](O)[C@]12C
logD [5]: 2.8

COc1cc(OCCF)cc(OC)c1NC(=O)c1ccc(Oc2cc3c(cc2C)CCC3(C)C)o1
logD [6]: 2.1

CCCCCN=c1ccn(Cc2cccc3ccccc23)c2cc(Cl)ccc12
logP [7]: 4.01

COc1cccc2c1C(=O)c1c(O)c3c(c(O)c1C2=O)CC(O)(CCO)CC3OC1CC(NC(C)=O)C(O)C(C)O1 (configuration not stated)
logD [4]: 1.56

COc1cc(NCCCF)cc(OC)c1NC(=O)c1ccc(Oc2cc3c(cc2C)CCC3(C)C)o1
logD [6]: 1.51

COC1=C(C2=C(OC)C(=O)c3c4c(cc(OC)c3C2=O)CC(C)OC4=O)C(=O)c2c(OC)cc3c(c2C1=O)C(=O)OC(C)C3 (configuration not stated)
logD [8]: 0.69

CCN(CC)C(=O)C(C#N)=Cc1cc(OCOC(=O)C(C)(C)C)c(OCOC(=O)C(C)(C)C)c([N+](=O)[O-])c1
logP: 3.86

CC(=O)O[C@H]1C(=O)[C@@]2(C)[C@H]([C@H](OC(=O)c3ccccc3)[C@]3(O)C[C@H](OC(=O)[C@@H](O)Cc4ccccc4)C(C)=C1C3(C)C)[C@]1(OC(C)=O)CO[C@@H]1C[C@@H]2O
logP [9]: 2.9

CC(CCC(=O)NCC(=O)O)C1CCC2C3C(O)CC4CC(O)CCC4(C)C3CC(C)(O)C12 (configuration not stated)
logD [5]: 1.9

COCCOCCOCCOCCOCN(C)c1ccc(C=C2CCC(=Cc3ccc(N(C)COCCOCCOCCOCCOC)cc3)C2=O)cc1
logD [10]: 2.73

CCCCC(OC(Cc1ccccc1)C(=O)N1CCC(OCOC)CC1)C(=O)NC(CC1CCCCC1)[C@@H](O)CC(C(=O)NCCCNC(C)=O)C(C)C (some centres not stated)
logD [11]: 4.3

C#CC1(OC(=O)OCCCCC(O)CO)CCC2C3CCC4=CC(=O)CCC4C3CCC21CC (configuration not stated)
logD [12]: 3.75

CCN(CC)C(=O)C(C#N)=Cc1cc(OC(=O)CC(=O)C(C)(C)C)c(OC(=O)CC(=O)C(C)(C)C)c([N+](=O)[O-])c1
logP: 3.99

COc1cccc2c1C(=O)c1c(O)c3c(c(O)c1C2=O)CC(O)(C(=O)CO)CC3OC1CC(NC(=O)OCc2ccc(OC3OC(C(=O)O)C(O)C(O)C3O)c([N+](=O)[O-])c2)C(O)C(C)O1 (configuration not stated)
logP [3]: -0.74

COCCOCCOCCOCCOCN(C)c1ccc(C=C2CC(=Cc3ccc(N(C)COCCOCCOCCOCCOC)cc3)C2=O)cc1
logD [10]: 2.54

CON=C(C(=O)NC1C(=O)N2C(C(=O)OCOC(=O)C(C)(C)C)=C(CN(C=O)C(C)=C3CCOC(=O)S3)CSC12)c1csc(N)n1 (configuration not stated)
logD [1]: 1.37

CCCCCN=c1ccn(Cc2ccc3ccccc3c2)c2cc(Cl)ccc12
logP [7]: 4.16

C#CC1(OC(=O)OCC(O)CO)CCC2C3CCC4=CC(=O)CCC4C3CCC21CC (configuration not stated)
logD [12]: 3.22

CC(=O)O[C@H]1C(=O)[C@@]2(C)[C@H]([C@H](OC(=O)c3ccccc3)[C@]3(O)C[C@H](OC(=O)[C@H](O)Cc4ccccc4)C(C)=C1C3(C)C)[C@]1(OC(C)=O)CO[C@@H]1C[C@@H]2O
logP [9]: 2.9

COC1=C(C2=C(OC)C(=O)c3cc4c(c(O)c3C2=O)C(=O)O[C@H](C)C4)C(=O)c2c(cc3c(c2O)C(=O)O[C@H](C)C3)C1=O
logD [8]: 0.37

CCCCC(OC(Cc1ccccc1)C(=O)N1CCC(OCOC)CC1)C(=O)NC(CC1CCCCC1)[C@@H](O)CC(C(=O)NCCCN/C(=N/C)NC#N)C(C)C (some centres not stated)
logD [11]: 4.4

C=CC(=O)NCCCCC(NC(=O)OCc1ccccc1)C(=O)N1CCN(c2ccccc2Cl)CC1 (configuration not stated)
logD [13]: 3
